Assay results as given in paper PMC7115410 (European Journal of Medicinal Chemistry, 2018).
Read-outs that look alike come from different tables or passages of the source.

What was measured:
Chk1 phosphorylation [1] = details: HCT116 cells
Chk1 = Chk1 (Homo sapiens, UniProt O14757); details: in vitro Chk1 kinase assay, purified Chk1 protein
Chk1 phosphorylation [2] = details: FOLFOX-HT29 cells, different concentrations, 24 h
[3] = test system: cleaved caspase 3, cleaved PARP 1, Bax, Bcl2; details: FOLFOX-HCT116 cells, different concentrations, 24 h
[4] = test system: cleaved caspase 3, cleaved PARP 1, Bax, Bcl2; details: FOLFOX-HT29 cells, different concentrations, 24 h
γH2AX = details: HCT-116 cells, 7b (5, 10 and 20 μM), 24 h
HCT116 cells = details: 25 μM 5-FU alone

Sequence of Chk1 (O14757 whole entry): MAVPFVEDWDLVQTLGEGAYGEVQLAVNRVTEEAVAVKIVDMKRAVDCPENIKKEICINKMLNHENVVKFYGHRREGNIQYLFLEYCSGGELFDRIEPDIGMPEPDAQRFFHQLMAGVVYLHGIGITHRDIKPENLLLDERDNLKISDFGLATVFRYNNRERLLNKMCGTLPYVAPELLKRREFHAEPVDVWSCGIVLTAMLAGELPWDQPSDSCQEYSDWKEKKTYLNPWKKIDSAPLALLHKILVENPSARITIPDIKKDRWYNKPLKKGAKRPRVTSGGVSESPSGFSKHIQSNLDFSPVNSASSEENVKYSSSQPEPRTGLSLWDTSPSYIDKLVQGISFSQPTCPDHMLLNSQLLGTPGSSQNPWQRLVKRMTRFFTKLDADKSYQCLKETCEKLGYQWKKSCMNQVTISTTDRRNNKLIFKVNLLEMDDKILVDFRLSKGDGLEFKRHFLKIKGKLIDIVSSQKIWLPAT

Row | Compound | Chk1(S345P) phosphorylation (Chk1 phosphorylation [2]) | Levels of cleaved caspase 3 and PARP1 [3] | Levels of cleaved caspase 3 and PARP1 [4] | further results
1 | NC(=O)NO [HU, hydroxyurea, reference compound] |  |  |  | Phosphorylation of Chk1(S317P), Chk1(S345P) and Chk1(S296P) (Chk1 phosphorylation [1]; 1 mM HU alone): high level phosphorylation
2 | ClC/C=C/C[N+]12CN3CN(CN(C3)C1)C2.[Cl-] [Compound 7a, 1-(4-Chloro-but-2-enyl)-3,5,7-triaza-1-azonia-tricyclo[3.3.1.1^3,7]decane; chloride] | increase | increased levels | increased levels | Inhibition of Chk1 activity in a reconstituted purified system (Chk1): do not inhibit
3 | 1-(3-Phenyl-allyl)-3,5,7-triaza-1-azonia-tricyclo[3.3.1.1^3,7]decane; chloride [Compound 7b] | increase | increased levels | increased levels | HU-induced phosphorylation of Chk1(S317P), Chk1(S345P) and Chk1(S296P) (Chk1 phosphorylation [1]; 1 mM HU for 24 h followed by 20 μM 7b for additional 8 h): reduced after combination treatment; γH2AX-foci, compound alone (γH2AX): increased γH2AX-foci
4 | O=c1[nH]cc(F)c(=O)[nH]1 [Compound 5-FU, 5-fluorouracil] |  |  |  | Cell cycle profile (HCT116 cells): S phase arrest
